Reference: ChEMBL document CHEMBL4321809, “Structure-Reactivity Relationships on Substrates and Inhibitors of the Lysine Deacylase Sirtuin 2 from Schistosoma mansoni (SmSirt2)” (J Med Chem, 2019)
Each block holds one molecule with its values, some of them ahead of it. Calls of active or inactive are those of the source. The calls are words filed in the database; no cut-off is given here.

Assays:
Schistosoma mansoni [1] = test: Antiparasitic activity against adult Schistosoma mansoni Puerto Rico assessed as reduction in worm pairing at 10 to 20 uM after 24 hrs by microscopic analysis; type: functional, organism-based
[2] = target: T1, NAD-dependent protein deacetylase sirtuin-2 (Homo sapiens, UniProt Q8IXJ6); test: Inhibition of N-terminal His6 tagged human sirtuin 2 (25 to 389 residues) using Cbz-Lys(acetyl)-AMC as substrate after 4 hrs in presence of NAD+ by homogeneous fluorescence based analysis
T1 sequence (Q8IXJ6 whole entry): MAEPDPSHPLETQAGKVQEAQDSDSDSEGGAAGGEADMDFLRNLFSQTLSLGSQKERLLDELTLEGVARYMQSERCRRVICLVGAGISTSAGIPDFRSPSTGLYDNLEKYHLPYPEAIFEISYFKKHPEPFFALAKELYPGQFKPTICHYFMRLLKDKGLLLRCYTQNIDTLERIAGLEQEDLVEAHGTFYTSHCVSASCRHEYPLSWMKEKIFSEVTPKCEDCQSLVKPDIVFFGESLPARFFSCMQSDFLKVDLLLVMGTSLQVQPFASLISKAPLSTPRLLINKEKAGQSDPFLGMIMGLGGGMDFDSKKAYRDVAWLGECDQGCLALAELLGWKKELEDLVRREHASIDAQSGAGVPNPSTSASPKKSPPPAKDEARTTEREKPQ

[3] = target: T1, NAD-dependent protein deacetylase sirtuin-2; test: Inhibition of N-terminal His6 tagged human sirtuin 2 (25 to 389 residues) assessed as inhibition of substrate demyristoylation using (Z)-(Myr)-Lys-AMC as susbtrate after 4 hrs in presence of NAD+ by homogeneous fluorescence based analysis
[4] = target: T2, NAD-dependent protein deacetylase (Schistosoma mansoni) (UniProt T1VXA1); test: Inhibition of recombinant Schistosoma mansoni sirtuin 2 (21 to 322 residues) expressed in Escherichia coli BL21(DE3) cells assessed as inhibition of substrate demyristoylation at 20 uM using (Z)-(Myr)-Lys-AMC as susbtrate after 1 hr in presence of NAD+ by homogeneous fluorescence based analysis relative to control
T2 sequence (whole entry): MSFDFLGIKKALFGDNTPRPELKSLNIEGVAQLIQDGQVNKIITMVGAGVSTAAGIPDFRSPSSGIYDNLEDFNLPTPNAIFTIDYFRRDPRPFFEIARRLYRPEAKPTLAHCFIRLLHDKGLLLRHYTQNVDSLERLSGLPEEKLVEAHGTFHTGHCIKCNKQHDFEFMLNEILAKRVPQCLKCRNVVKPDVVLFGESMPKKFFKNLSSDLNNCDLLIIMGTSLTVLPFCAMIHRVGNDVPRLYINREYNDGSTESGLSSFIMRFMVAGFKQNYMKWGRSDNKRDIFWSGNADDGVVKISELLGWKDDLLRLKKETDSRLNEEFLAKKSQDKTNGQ

Schistosoma mansoni [5] = test: Antiparasitic activity against adult Schistosoma mansoni Puerto Rico assessed as reduction in egg laying at 10 to 20 uM after 24 hrs by microscopic analysis; type: functional, organism-based
[6] = target: T3, NAD-dependent protein deacetylase (Schistosoma mansoni, UniProt T1VXA1); test: Inhibition of recombinant Schistosoma mansoni sirtuin 2 (21 to 322 residues) expressed in Escherichia coli BL21(DE3) cells using ZMAL as substrate after 1 hr in presence of NAD+ by homogeneous fluorescence based analysis
T3 sequence (T1VXA1 whole entry): T2 sequence (whole entry)

Schistosoma mansoni [7] = test: Antiparasitic activity against Schistosoma mansoni Puerto Rico assessed as reduction in parasite viability at 10 to 20 uM after 72 hrs by microscopic analysis; type: functional, organism-based
[8] = Selectivity ratio of IC50 for N-terminal His6 tagged human sirtuin 2 (25 to 389 residues) to IC50 for recombinant Schistosoma mansoni sirtuin 2 (21 to 322 residues) expressed in Escherichia coli BL21(DE3) cells
[9] = target: T1, NAD-dependent protein deacetylase sirtuin-2; test: Inhibition of N-terminal His6 tagged human sirtuin 2 (25 to 389 residues) at 25 uM using Cbz-Lys(acetyl)-AMC as substrate after 4 hrs in presence of NAD+ by homogeneous fluorescence based analysis relative to control
[10] = target: T1, NAD-dependent protein deacetylase sirtuin-2; test: Inhibition of N-terminal His6 tagged human sirtuin 2 (25 to 389 residues) assessed as inhibition of substrate demyristoylation at 20 uM using (Z)-(Myr)-Lys-AMC as susbtrate after 4 hrs in presence of NAD+ by homogeneous fluorescence based analysis relative to control
[11] = target: T2, NAD-dependent protein deacetylase (Schistosoma mansoni); test: Inhibition of recombinant Schistosoma mansoni sirtuin 2 (21 to 322 residues) expressed in Escherichia coli BL21(DE3) cells at 25 uM using ZMAL as susbtrate after 1 hr in presence of NAD+ by homogeneous fluorescence based analysis relative to control
[12] = target: T1, NAD-dependent protein deacetylase sirtuin-2; test: Inhibition of N-terminal His6 tagged human sirtuin 2 (25 to 389 residues) at 50 uM using Cbz-Lys(acetyl)-AMC as substrate after 4 hrs in presence of NAD+ by homogeneous fluorescence based analysis relative to control
[13] = target: T2, NAD-dependent protein deacetylase (Schistosoma mansoni); test: Inhibition of recombinant Schistosoma mansoni sirtuin 2 (21 to 322 residues) expressed in Escherichia coli BL21(DE3) cells assessed as inhibition of substrate deacetylation at 20 uM using ZMAL as substrate relative to control
[14] = target: T1, NAD-dependent protein deacetylase sirtuin-2; test: Inhibition of human sirutin 2 assessed as inhibition of susbtrate demyristoylation at 20 uM using (Z)-(Myr)-Lys-AMC as substrate relative to control
[15] = target: T2, NAD-dependent protein deacetylase (Schistosoma mansoni); test: Inhibition of recombinant Schistosoma mansoni sirtuin 2 (21 to 322 residues) expressed in Escherichia coli BL21(DE3) cells assessed as inhibition of substrate demyristoylation at 20 uM using (Z)-(Myr)-Lys-AMC as substrate relative to control
[16] = target: T3, NAD-dependent protein deacetylase; test: Inhibition of recombinant Schistosoma mansoni sirtuin 2 (21 to 322 residues) expressed in Escherichia coli BL21(DE3) cells assessed as inhibition of substrate demyristoylation using (Z)-(Myr)-Lys-AMC as susbtrate after 1 hr in presence of NAD+ by homogeneous fluorescence based analysis
HL-60 = test: Cytotoxicity against human HL60 cells at 10 uM after 72 hrs by Cell titer MTS dye based analysis; conditions: hl-60, 72 h
[17] = substrate: CCCCCCCCCCCCCC(=O)NCCCC[C@H](NC(=O)[C@H](CC(=O)O)NC(=O)[C@H](CO)NC(=O)[C@@H]1CCCN1C(C)=O)C(=O)N[C@@H](Cc1ccc(O)cc1)C(=O)N[C@H](C(=O)NCC(=O)NCC(=O)N[C@@H](Cc1c[nH]c2ccccc12)C(=O)N[C@@H](Cc1c[nH]c2ccccc12)C(N)=O)[C@@H](C)CC; test: Substrate activity at recombinant Schistosoma mansoni sirtuin 2 (21 to 322 residues) expressed in Escherichia coli BL21(DE3) cells assessed as Km up to 30 mins by RP-HPLC analysis; type: ADME
[18] = substrate: CCCCCCCCCCCCCCCC(=O)NCCCC[C@H](NC(=O)OCc1ccccc1)C(=O)Nc1ccc2c(C)cc(=O)oc2c1; test: (§1) Substrate activity at recombinant Schistosoma mansoni sirtuin 2 (21 to 322 residues) expressed in Escherichia coli BL21(DE3) cells assessed as Km up to 30 mins by homogeneous fluorescence based analysis; type: ADME
[19] = substrate: CC(=O)N[C@@H](CCCCN)C(=O)Nc1ccc2c(C)cc(=O)oc2c1; test: as §1; type: ADME
[20] = substrate: NC(=O)c1ccc[n+]([C@H]2O[C@@H](COP(=O)([O-])OP(=O)(O)OC[C@H]3O[C@@H](n4cnc5c(N)ncnc54)[C@H](O)[C@@H]3O)[C@H](O)[C@@H]2O)c1; test: Substrate activity at recombinant Schistosoma mansoni sirtuin 2 (21 to 322 residues) expressed in Escherichia coli BL21(DE3) cells assessed as Km up to 30 mins in presence of PSDKmyr at saturating concentration by RP-HPLC analysis; type: ADME
[21] = substrate: NC(=O)c1ccc[n+]([C@H]2O[C@@H](COP(=O)([O-])OP(=O)(O)OC[C@H]3O[C@@H](n4cnc5c(N)ncnc54)[C@H](O)[C@@H]3O)[C@H](O)[C@@H]2O)c1; test: Substrate activity at recombinant Schistosoma mansoni sirtuin 2 (21 to 322 residues) expressed in Escherichia coli BL21(DE3) cells assessed as Km up to 30 mins in presence of PSDKac at saturating concentration by RP-HPLC analysis; type: ADME
[22] = substrate: NC(=O)c1ccc[n+]([C@H]2O[C@@H](COP(=O)([O-])OP(=O)(O)OC[C@H]3O[C@@H](n4cnc5c(N)ncnc54)[C@H](O)[C@@H]3O)[C@H](O)[C@@H]2O)c1; test: Substrate activity at recombinant Schistosoma mansoni sirtuin 2 (21 to 322 residues) expressed in Escherichia coli BL21(DE3) cells assessed as Km up to 30 mins in presence of ZMAL at saturated substrate concentration by homogeneous fluorescence based analysis; type: ADME
[23] = substrate: NC(=O)c1ccc[n+]([C@H]2O[C@@H](COP(=O)([O-])OP(=O)(O)OC[C@H]3O[C@@H](n4cnc5c(N)ncnc54)[C@H](O)[C@@H]3O)[C@H](O)[C@@H]2O)c1; test: Substrate activity at recombinant Schistosoma mansoni sirtuin 2 (21 to 322 residues) expressed in Escherichia coli BL21(DE3) cells assessed as Km up to 30 mins in presence of ZMML at saturated concentration by homogeneous fluorescence based analysis; type: ADME

IC50 [2]: 21.5 µM
IC50 [3]: 15.6 µM
inhibition [4]: < 15%
IC50 [6]: 2 µM
Molecule: COc1cc(OC)cc(Sc2ccc(C(c3ccccc3)N(C)c3ncc4c(N)nc(N)nc4n3)cc2)c1 (stereo not given)
inhibition (Schistosoma mansoni [1]): Active
inhibition (Schistosoma mansoni [5]): Active
inhibition (Schistosoma mansoni [7]): Active
Ratio IC50 [8]: 10

inhibition at 25 µM [9]: < 15%
inhibition at 20 µM [10]: < 15%
inhibition [11]: 41.9%
inhibition [4]: < 15%
Molecule: COc1ccc(C(=O)Nc2ccc(C(C)N(C)c3ncc4c(N)nc(N)nc4n3)cc2)cc1 (stereo not given)

Molecule: O=C(c1cc2cc(Cl)ccc2[nH]1)N1CCCCC1c1cccnc1 (stereo not given)
inhibition at 50 µM [12]: < 15%
IC50 [6]: 18.2 µM

inhibition at 25 µM [9]: < 15%
inhibition at 20 µM [10]: 38.1%
inhibition [11]: 49%
inhibition [4]: < 15%
Molecule: CSc1ccc(Oc2ccc(C(C)N(C)c3ncc4c(N)nc(N)nc4n3)cc2)cc1 (stereo not given)

inhibition [13]: < 15%
inhibition at 20 µM [14]: < 15%
inhibition [15]: < 15%
Molecule: Cc1cc(C)nc(SCC(=O)Nc2ncc(Cc3cccc4ccccc34)s2)n1

inhibition at 25 µM [9]: 21.9%
inhibition at 50 µM [12]: 24.1%
IC50 [16]: 16.8 µM
inhibition at 20 µM [10]: < 15%
Imax [4]: 45%
IC50 [6]: 23.7 µM
Molecule: COc1ccc(Oc2ccc(C(C)N(C)c3ncc4c(N)nc(N)nc4n3)cc2)cc1 (stereo not given)
inhibition (Schistosoma mansoni [1]): Active
inhibition (Schistosoma mansoni [5]): Active
Activity (HL-60): Non-Toxic
inhibition (Schistosoma mansoni [7]): Active

B1: NAD-dependent protein deacetylase (Schistosoma mansoni) (protein)
chain: T2 sequence (whole entry)
Km [17]: 15.1 µM
kcat [17]: 0.00563 s⁻¹
kcat/Km [17]: 370 M⁻¹ s⁻¹
Km [18]: 37.5 µM
Km [19]: 59 µM
Km [20]: 13.3 µM
kcat [20]: 0.00538 s⁻¹
kcat/Km [20]: 410 M⁻¹ s⁻¹
Km [21]: 33.9 µM
kcat [21]: 0.00172 s⁻¹
kcat/Km [21]: 51 M⁻¹ s⁻¹
Km [22]: 75.8 µM
kcat [22]: 0.000119 s⁻¹
Km [23]: 9.3 µM
